Measurements as given in US20050148495A1, “Methods and materials including for treating acne” (priority 2003, published 2005).
Values after ≈ are worked out from the molar mass of the structure shown. Like-named read-outs stand apart in the source and are kept apart here. One block for each molecule: values may come before it.

Experiments:
[1] = system: Bacteroides fragilis; assay: microbe, parasite or virus in culture; assay type: cell-based; settings: Bacteroides fragilis 25285; read-out: Minimum Inhibitory Concentrations
Method: (§1) Acne vulgaris may involve a microbial consortium. Although P. acnes may be a prominent member of such a consortium, other uncharacterized bacteria may also participate. The microbial activity of XMP.629 as an acetate gel as described in Example 5 and other commonly used antibiotics was evaluated against a panel of human pathogens using standardized NCCLS protocols. […] Lesser potency was observed against the gram-negative organisms B. fragilis, B. cepacia, P. mirabilis and S. marcescens, which are often refractory to many antimicrobial compounds.

[2] = system: Escherichia coli; assay: microbe, parasite or virus in culture; assay type: cell-based; settings: Escherichia coli, read-out: Minimum Inhibitory Concentrations
Method: as §1

[3] = system: Klebsiella pneumoniae; assay: microbe, parasite or virus in culture; assay type: cell-based; settings: Klebsiella pneumoniae, read-out: Minimum Inhibitory Concentrations
Method: as §1

[4] = system: Proteus mirabilis; assay: microbe, parasite or virus in culture; assay type: cell-based; settings: Proteus mirabilis 29852; read-out: Minimum Inhibitory Concentrations
Method: as §1

[5] = system: Serratia marcescens; assay: microbe, parasite or virus in culture; assay type: cell-based; settings: Serratia marcescens 13880; read-out: Minimum Inhibitory Concentrations
Method: as §1

[6] = system: Staphylococcus aureus; settings: Staphylococcus aureus 342U-116
[7] = system: E. coli; settings: E. coli 4104 LF
[8] = system: Pseudomonas aeruginosa; assay: microbe, parasite or virus in culture
[9] = system: Actinobacillus actinomycetemcomitans; assay: microbe, parasite or virus in culture; assay type: cell-based; settings: Aggregatibacter actinomycetemcomitans; Actinobacillus actinomycetemcomitans 43718; read-out: Minimum Inhibitory Concentrations
Method: as §1

[10] = system: Burkholderia cepacia; assay: microbe, parasite or virus in culture; assay type: cell-based; settings: Burkholderia cepacia 25416; read-out: Minimum Inhibitory Concentrations
Method: as §1

[11] = system: Porphyromonas gingivalis; assay: microbe, parasite or virus in culture; assay type: cell-based; settings: Porphyromonas gingivalis 33277; read-out: Minimum Inhibitory Concentrations
Method: as §1

[12] = system: Prevotella intermedia; assay: microbe, parasite or virus in culture; assay type: cell-based; settings: Prevotella intermedia 25261; read-out: Minimum Inhibitory Concentrations
Method: as §1

[13] = system: Salmonella ryphimurium; assay: microbe, parasite or virus in culture; assay type: cell-based; settings: Salmonella ryphimurium SL770; read-out: Minimum Inhibitory Concentrations
Method: as §1

[14] = system: Streptococcus mutans; assay: MIC, panel of human pathogens, standardized NCCLS protocols; assay type: cell-based; settings: read-out: Minimum Inhibitory Concentrations
[15] = system: Enterococcus faccium (VRE); assay: microbe, parasite or virus in culture; settings: read-out: Minimum Inhibitory Concentrations
[16] = system: Enterococcus hirae; assay: microbe, parasite or virus in culture; settings: read-out: Minimum Inhibitory Concentrations
[17] = system: Macrococcus caseolyticus; assay: microbe, parasite or virus in culture; settings: Macrococcoides caseolyticum, read-out: Minimum Inhibitory Concentrations
[18] = system: Streptococcus pneumoniae; assay: microbe, parasite or virus in culture; settings: read-out: Minimum Inhibitory Concentrations
[19] = system: Streptococcus sobrinus; assay: microbe, parasite or virus in culture; settings: read-out: Minimum Inhibitory Concentrations
[20] = system: Corynebacterium; assay: microbe, parasite or virus in culture; assay type: cell-based; settings: read-out: MIC90 of Standard Topical Agents
Method: (§2) Control tubes containing only water or formulation buffer were prepared for each isolate. Initial growth controls were determined by removing 10 μL from the water control tube and diluting it by 100 fold. From this dilution, 10 μL was used for inoculation and for spreading over the surface onto Laked Blood Agar (LBA) (Anaerobe Systems, Morgan Hill, Calif.) plates. The tubes and plates were incubated in an anaerobic atmosphere at 37° C. for 48 h. […] MBC50 and 90 values represent where 50 and 90%, respectively, of the tested strain's MBC values are equal to or less than the indicated concentration.

[21] = system: S. aureus; assay: Comparison of XMP.629 with standard topical agents (MIC90/MBC); assay type: cell-based, Staphylococcus aureus; settings: Staphylococcus aureus
Method: as §2

[22] = system: P. acnes; settings: strains UPC686 and UP2022; with XMP.629
[23] = system: P. acnes strain (ATCC 6919); settings: P. acnes ATCC 6919 passaged in the drug, level of the resistant culture sought/obtained
[24] = system: P. acnes; assay: microbe, parasite or virus in culture; settings: Cutibacterium acnes, read-out: MIC90 of Standard Topical Agents
Method: An in vitro assessment of antibiotic activity in XMP.629 and various known antibiotics against a representative panel of bacterial strains associated with acne was conducted. A broth dilution methodology was employed using guidelines established by National Committee for Clinical Laboratory Standards (NCCLS) for anaerobic organisms to establish an antibacterial profile for XMP.629. Assays to determine the minimal bactericidal concentrations (MBC) and minimal inhibitory concentration (MIC) were conducted for XMP.629 and other known antibiotics.
Inoculum from a representative panel of bacterial strains associated with acne, such as P. acnes, P. avidum, P. granulosum, and Staphylococcus epidermis was prepared by suspending approximately 5-10 isolated bacterial colonies in pre-reduced MicroScan® Inoculum Water (Dade Behring, Deerfield, Ill.), and growing the bacterial suspension to log phase (approximately 48 hrs). An inoculum of between 1-5×10^6/mL was achieved by adding 100 μL of the suspension to 25 mL Brain Heart Infusion Broth (BHI) (Anaerobe Systems, Morgan Hill, Calif.).
A stock solution of XMP.629 dissolved in water at a concentration of 4.0 mg/mL was prepared. Dilute solutions of XMP.629 at concentrations ranging from about 1.25 to about 160 μg/mL were made in either water or formulation buffer (130 mM sodium chloride, 0.2% P103 (poloxamer 333), and 0.10% EDTA, pH 7.3).
Control tubes containing only water or formulation buffer were prepared for each isolate. Initial growth controls were determined by removing 10 μL from the water control tube and diluting it by 100 fold. From this dilution, 10 μL was used for inoculation and for spreading over the surface onto Laked Blood Agar (LBA) (Anaerobe Systems, Morgan Hill, Calif.) plates. The tubes and plates were incubated in an anaerobic atmosphere at 37° C. for 48 h.

[25] = system: P. acnes; assay: microbe, parasite or virus in culture; settings: Cutibacterium acnes
[26] = system: P. acnes strain (ATCC 6919); assay: microbe, parasite or virus in culture; settings: Cutibacterium acnes, ATCC6919, read-out: MIC for matched, untreated, control organisms
[27] = system: Staphylococcus aureus; assay: microbe, parasite or virus in culture
[28] = system: Enterococcus; assay type: cell-based
Method: as §2

[29] = system: Clostridium difficile; assay: microbe, parasite or virus in culture; settings: Clostridioides difficile, read-out: Minimum Inhibitory Concentrations
[30] = system: Propionibacterium acnes; assay: microbe, parasite or virus in culture; settings: Cutibacterium acnes, read-out: Minimum Inhibitory Concentrations
[31] = system: patients; settings: clinical trials; cited from earlier work
[32] = system: skin of healthy subjects; assay: 21-day cumulative skin irritation study in healthy subjects; settings: occlusive patches
Method: Subjects include males and females, ranging in age from 18 to 70 years old. Subjects are of any skin and race type.
Patches are prepared approximately 5-60 minutes before application to the subject and are applied on the backs of subjects at designated sites. Patches are held in place with appropriate adhesion tapes for 48 hours. Gels are applied to the same site on a given subject according to the randomization code three times per week. Subjects are instructed to keep the patches dry and are asked to avoid exercise that results in excessive sweating. Additionally, subjects are instructed to not expose the applied sites to sunlight for the duration of the study.
Every application is observed 48 hours later for signs of irritation or inflammation by a clinician or investigator. The clinician or investigator evaluates sign of skin reaction on each site for approximately 5-15 minutes after the patch is removed. Skin irritancy is rated according to the following commonly used 6-point scale: • 0=No sign of irritation • 0.5=Barely perceptible erythema • 1=Slight erythema • 2=Noticeable erythema with slight infiltration • 3=Erythema with marked edema • 4=Erythema with edema and blistering
Other signs of skin reaction to the tested gels are noted as adverse events and are recorded. A total of nine readings are performed during the study. […]

[33] = read-out: Minimum Inhibitory Concentrations, Pseudomonas aeruginosa 27853
[34] = read-out: Minimum Inhibitory Concentrations, Pseudomonas aeruginosa XS-65 (MDR)
[35] = BAA38|MRSA, read-out: Minimum Inhibitory Concentrations, Staphylococcus aureus BAA-38 (MRSA)
[36] = read-out: Minimum Inhibitory Concentrations, Staphylococcus aureus 19636

- MIC [1]: 2.5 µg/mL (≈ 4.51 µM)
- MIC ([2]; Escherichia coli 07:K1): ≤ 0.25 µg/mL
- MIC ([2]; Escherichia coli 0111:B4): ≤ 0.063 µg/mL
- MIC ([3]; Klebsiella pneumoniae 19645): > 64 µg/mL
- MIC ([3]; Klebsiella pneumoniae 29011): 0.13 µg/mL (≈ 0.234 µM)
- MIC [4]: ≤ 0.063 µg/mL
- MIC [5]: 0.25 µg/mL (≈ 0.451 µM)
- MIC [8, 33]: 8 µg/mL (≈ 14.4 µM)
- MIC [8, 34]: 16 µg/mL (≈ 28.9 µM)
Structure (SMILES): CO/N=C(\C(=O)N[C@@H]1C(=O)N2C(C(=O)O)=C(CSc3nc(=O)c(=O)[nH]n3C)CS[C@H]12)c1csc(N)n1 [Ceftriaxone]
- MBC (antibiotic alone) [6]: >4 µg/mL
- MBC (antibiotic alone) [7]: ≦4 μg/mL

- MIC [9]: ≤ 1 µg/mL
- MIC [10]: 1 µg/mL (≈ 3.02 µM)
- MIC ([2]; Escherichia coli 07:K1): ≤ 0.25 µg/mL
- MIC ([2]; Escherichia coli 0111:B4): ≤ 0.063 µg/mL
- MIC ([3]; Klebsiella pneumoniae 19645): 0.13 µg/mL (≈ 0.392 µM)
- MIC ([3]; Klebsiella pneumoniae 29011): ≤ 0.063 µg/mL
- MIC [11]: ≤ 1 µg/mL
- MIC [12]: ≤ 1 µg/mL
- MIC [4]: ≤ 0.063 µg/mL
- MIC [13]: ≤ 1 µg/mL
- MIC [5]: 0.06 µg/mL (≈ 0.181 µM)
- MIC ([14]; Streptococcus mutans 25175): 2 µg/mL (≈ 6.04 µM)
- MIC ([8]; read-out: Minimum Inhibitory Concentrations, Pseudomonas aeruginosa 9027): 0.13 µg/mL (≈ 0.392 µM)
- MIC ([8]; read-out: Minimum Inhibitory Concentrations, Pseudomonas aeruginosa 19660): 0.13 µg/mL (≈ 0.392 µM)
- MIC [8, 33]: ≤ 1 µg/mL
- MIC [8, 34]: ≤ 1 µg/mL
- MIC [15]: 64 µg/mL (≈ 193 µM)
- MIC [16]: ≤ 1 µg/mL
- MIC [17]: ≤ 1 µg/mL
- MIC [18]: ≤ 1 µg/mL
- MIC [19]: 2 µg/mL (≈ 6.04 µM)
Structure (SMILES): O=C(O)c1cn(C2CC2)c2cc(N3CCNCC3)c(F)cc2c1=O [Ciprofloxacin]

Structure (SMILES): CC[C@H]1OC(=O)[C@H](C)[C@@H](O[C@H]2C[C@@](C)(OC)[C@@H](O)[C@H](C)O2)[C@H](C)[C@@H](O[C@@H]2O[C@H](C)C[C@H](N(C)C)[C@H]2O)[C@](C)(O)C[C@@H](C)C(=O)[C@H](C)[C@@H](O)[C@]1(C)O [Erythromycin]
- MIC90 [20]: 0.5 µg/mL (≈ 0.681 µM)
- MIC90 [21]: > 4 µg/mL
- FIC [22]: 2
- MIC/MBC ([23]; listed as Erythromycin IR): 64 µg/mL (≈ 87.2 µM)
- MIC/MBC ([23]; listed as Erythromycin R): >64 µg/mL
- MIC90 [24]: > 256 µg/mL
- MIC ([25]; ATCC6919, ATCC 6919 converted to an intermediate-erythromycin strain): 64 µg/mL (≈ 87.2 µM)
- MIC ([25]; clindamycin/erythromycin sensitive strain UP2022): < 1 µg/mL
- MIC [26]: 4 µg/mL (≈ 5.45 µM)

Structure (SMILES): Cc1onc(-c2ccccc2)c1C(=O)N[C@@H]1C(=O)N2[C@@H]1SC(C)(C)[C@@H]2C(=O)O [Oxacillin]
- MBC (antibiotic alone) [6]: 1 µg/mL (≈ 2.49 µM)
- MIC [15]: > 64 µg/mL
- MIC [27, 35]: 8 µg/mL (≈ 19.9 µM)
- MIC [27, 36]: 1 µg/mL (≈ 2.49 µM)

Structure (SMILES): CN[C@H](CC(C)C)C(=O)N[C@H]1C(=O)N[C@@H](CC(N)=O)C(=O)N[C@H]2C(=O)N[C@H]3C(=O)N[C@H](C(=O)N[C@H](C(=O)O)c4cc(O)cc(O)c4-c4cc3ccc4O)[C@H](O)c3ccc(c(Cl)c3)Oc3cc2cc(c3O[C@@H]2O[C@H](CO)[C@@H](O)[C@H](O)[C@H]2O[C@H]2C[C@](C)(N)[C@H](O)[C@H](C)O2)Oc2ccc(cc2Cl)[C@H]1O [Vancomycin]
- MIC90 [20]: 0.5 µg/mL (≈ 0.345 µM)
- MIC90 of Standard Topical Agents [28]: 1.0/NE
- MIC90 [21]: 4 µg/mL (≈ 2.76 µM)
- MIC ([14]; Streptococcus mutans): 2 µg/mL (≈ 1.38 µM)
- MIC90 [24]: 2 µg/mL (≈ 1.38 µM)
- MIC [29]: 1 µg/mL (≈ 0.69 µM)
- MIC [15]: > 64 µg/mL
- MIC [30]: 2 µg/mL (≈ 1.38 µM)
- MIC [27, 35]: 1 µg/mL (≈ 0.69 µM)
- MIC ([27]; read-out: Minimum Inhibitory Concentrations, Staphylococcus aureus 6258): 2 µg/mL (≈ 1.38 µM)
- MIC ([27]; read-out: Minimum Inhibitory Concentrations, Staphylococcus aureus 11371): 1 µg/mL (≈ 0.69 µM)
- MIC ([27]; read-out: Minimum Inhibitory Concentrations, Staphylococcus aureus 12598): 1.25 µg/mL (≈ 0.863 µM)
- MIC [27, 36]: ≤ 1 µg/mL
- MIC [19]: 1 µg/mL (≈ 0.69 µM)

Structure (SMILES): O=C(O)CCCCCCCC(=O)O [azelaic acid]
- patients reporting pruritus (itching), burning, stinging, and tingling [31]: 1-5%

Structure (SMILES): CCCCCCCCCCCCOS(=O)(=O)[O-].[Na+] [sodium lauryl sulfate]
- cumulative irritation, conclusion [32]: mild cumulative irritation
- mean cumulative irritation score [32]: 0.25
